Reference: PubChem BioAssay (NCI)
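Dose response: 5 concentrations. Exposure: 48 h. Format: 96-well plates. Endpoint: linear interpolation; highest concentration if not reached. TGI: total growth inhibition.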

Columns and labels:
Assay in all cases: growth of human tumour cells (NCI), 48 h
SF-268 CNS = tested on: SF-268 CNS
SR leukemia = tested on: SR leukemia
K-562 leukemia = tested on: K-562 leukemia
MDA-MB-231 breast = tested on: MDA-MB-231 breast
MOLT-4 leukemia = tested on: MOLT-4 leukemia
SK-OV-3 ovarian = tested on: SK-OV-3 ovarian
M14 melanoma = tested on: M14 melanoma
SNB-75 CNS = tested on: SNB-75 CNS
HOP-62 NSCLC = tested on: HOP-62 NSCLC
SW-620 colon = tested on: SW-620 colon
TK-10 renal = tested on: TK-10 renal
T-47D breast = tested on: T-47D breast
UO-31 renal = tested on: UO-31 renal
HCC-2998 colon = tested on: HCC-2998 colon
RXF 393 renal = tested on: RXF 393 renal
MALME-3M melanoma = tested on: MALME-3M melanoma
PC-3 prostate = tested on: PC-3 prostate
A549 NSCLC = tested on: A549 NSCLC

| SMILES | TGI (SF-268 CNS) [µM] | TGI (SR leukemia) [µM] | TGI (K-562 leukemia) [µM] | TGI (MDA-MB-231 breast) [µM] | TGI (MOLT-4 leukemia) [µM] | TGI (SK-OV-3 ovarian) [µM] | TGI (M14 melanoma) [µM] | TGI (SNB-75 CNS) [µM] | TGI (HOP-62 NSCLC) [µM] | TGI (SW-620 colon) [µM] | TGI (TK-10 renal) [µM] | TGI (T-47D breast) [µM] | TGI (UO-31 renal) [µM] | TGI (HCC-2998 colon) [µM] | TGI (RXF 393 renal) [µM] | TGI (MALME-3M melanoma) [µM] | TGI (PC-3 prostate) [µM] | TGI (A549 NSCLC) [µM] |
| --- | --- | --- | --- | --- | --- | --- | --- | --- | --- | --- | --- | --- | --- | --- | --- | --- | --- | --- |
| CC(=O)[C@H]1[C@H](O)C[C@@]2(C)[C@@H]3CCc4cc(O)c(OC5OC(CO)C(O)C(O)C5O)cc4C3(C)C(=O)C[C@]12C (stereo partly specified) | > 100 | > 100 | > 100 | > 100 | > 100 | > 100 | > 100 | > 100 | > 100 | > 100 | > 100 | > 100 | > 100 | > 100 | > 100 | > 100 | > 100 | > 100 |
| O=C1NC(N/N=C\c2ccccc2)=N/C1=C/c1ccccc1 | > 100 | 53.9 | > 100 | > 100 | 50 | > 100 | > 100 | 63.2 | 48.2 | > 100 | > 100 | > 100 | > 100 | 40 | 73.1 | > 100 | 98.4 | > 100 |
| O=[N+]([O-])/C(Cl)=C(/C(Cl)=C(Cl)Cl)N1CCOCC1 | 24.4 | 6.42 | 12.8 | 8.89 | 7.32 | 27.3 | 7.66 | 17.9 | 2.5 | 11.7 | 13.6 | 9.36 | 12.8 | 7.52 | 7.93 | 3.07 | 19.3 | 15.6 |
| CC(C)(C)OC(=O)CCCCCNC(=O)CCCCCNC(=O)CCC(CN(CC(=O)OCc1ccccc1)CC(=O)OCc1ccccc1)N(CC(=O)OCc1ccccc1)CC(=O)OCc1ccccc1 (stereo unspecified) | > 100 | > 100 | > 100 | > 100 | > 100 | > 100 | > 100 | 81.9 | > 100 | > 100 | > 100 | > 100 | > 100 | > 100 | > 100 | > 100 | > 100 | > 100 |
| COC(=O)C(=O)Nc1cc2c3c(c1)Oc1cccc4c1C3(C)c1c(cccc1O2)O4 | > 100 | > 100 | > 100 | > 100 | > 100 | > 100 | > 100 | > 100 | > 100 | > 100 | > 100 | > 100 | > 100 | > 100 | 56.9 | > 100 | > 100 | > 100 |
| O=c1[nH][nH]c(=O)c2c1ccc1oc3ccccc3c12 | > 100 | > 100 | > 100 | > 100 | > 100 | > 100 | > 100 | > 100 | > 100 | > 100 | > 100 | > 100 | > 100 | > 100 | > 100 | > 100 | > 100 | > 100 |
| O=C(Nc1ccccc1)OCCN=C1c2ccccc2CCc2ccccc21 | 75.4 | 38.9 | 60.9 | 37.1 | 31.1 | 92.3 | 45.1 | > 100 | 49.4 | > 100 | > 100 | 45 | 43.7 | 45.9 | 50.2 | 57.9 | 82.8 | > 100 |
| CC(C)(C)OC(=O)N1CCCC1C(=O)NC(c1ccccc1)c1ccccc1 (stereo unspecified) | > 100 | > 100 | > 100 | > 100 | > 100 | > 100 | > 100 | > 100 | > 100 | > 100 | > 100 | > 100 | > 100 | > 100 | > 100 | > 100 | > 100 | > 100 |
| O=C1Cc2cn[nH]c2-c2ccccc2N1 | > 100 | 71.8 | 56.6 | > 62 | 49.7 | > 100 | > 55.2 | > 100 | > 100 | 32.4 | 91.5 | > 100 | > 100 | 67.3 | 72.3 | > 69.7 | > 100 | > 64.2 |
| Cc1[nH]c(-c2ccccc2)c2nc(N(C)C)oc(=O)c12 | > 100 | > 100 | > 100 | > 100 | > 100 | > 100 | > 100 | > 100 | > 100 | > 100 | > 100 | > 100 | > 100 | > 100 | > 100 | > 100 | > 100 | > 100 |
| O=C1c2c(Br)sc(Br)c2[C@@H](O)[C@H]1O | 24.7 | 4.84 | > 36.8 | 31.4 | 32.6 | 29.4 | 26.5 | 31.6 | 30.6 | 12.3 | > 100 | 43.7 | 32.3 | 34.4 | 30 | 40.6 | 33.1 | 45 |
| CC(C)OP(=O)(OC(C)C)C(C)(C)O | > 100 | > 100 | > 100 | > 100 | > 100 | > 100 | > 100 | > 100 | > 100 | > 100 | > 100 | > 100 | > 100 | > 100 | > 100 | > 100 | > 100 | > 100 |
| CC(Oc1ccc(Cl)cc1Cl)C(=O)NN1C(=O)CC(=O)N(c2ccccc2)C1=S (stereo unspecified) | > 100 | 22.4 | > 100 | > 100 | > 100 | > 100 | > 100 | > 100 | > 100 | > 100 | > 100 | > 100 | > 100 | > 100 | > 100 | > 100 | > 100 | > 100 |
| O=C(NCCNCCNC(=O)c1cc(-c2ccccc2)nc2ccccc12)c1cc(-c2ccccc2)nc2ccccc12 | 9.55 | 5.37 | 3.99 | 7.32 | 5.52 | 17.7 | 3.12 | 3.99 | 3.26 | 3.25 | 7.96 | 7.62 | 6.94 | 3.14 | 3.56 | 3.33 | 8.88 | 9.13 |
| COc1cc2cc(C(=O)N3CC(CCl)c4ccc([N+](C)(C)Cc5ccccc5[N+](=O)[O-])cc43)[nH]c2c(OC)c1OC (stereo unspecified) | 9.1 | 4.39 | 12.5 | > 31.9 | 2.74 | 30.1 | 19 | 24.7 | 18.1 | > 75.9 | > 100 | 12.5 | 5.17 | 9 | 2.11 | 3.59 | 25.9 | > 100 |
| O=[N+]([O-])c1ccc(-c2nn3c(C45CC6CC(CC(C6)C4)C5)nnc3s2)c(Cl)c1 | > 100 | > 100 | > 100 | > 100 | > 100 | > 100 | > 100 | > 100 | > 100 | > 100 | > 100 | > 100 | > 100 | > 100 | > 100 | > 100 | > 100 | > 100 |
| Cc1ccc2nc(NS(=O)(=O)c3cc(C)c(Cl)cc3S)[nH]c2c1 | > 100 | > 100 | > 100 | > 100 | > 100 | > 100 | > 100 | > 100 | > 100 | > 100 | > 100 | > 100 | > 100 | > 100 | > 100 | > 100 | > 100 | > 100 |
| O=[N+]([O-])c1cccc2nccc(NCCN3CCOCC3)c12 | > 66.7 | > 31.4 | > 56.7 | 71.1 | > 56.5 | > 100 | 34 | 47.2 | 35.6 | 33.7 | > 48.4 | > 100 | > 100 | 26.4 | 31.9 | 18.7 | 39.1 | 43.3 |
| O=C1CSC(c2ccccc2O)N1c1ccc(-n2c(-c3ccccc3)nc3ccccc3c2=O)cc1 (stereo unspecified) | > 100 | > 100 | > 100 | 37.5 | > 100 | 95.3 | > 100 | > 100 | 77.5 | > 100 | > 100 | 65.8 | 77.2 | > 100 | > 100 | 74.6 | 58.7 | > 100 |
| CN=c1sc2nc(C#N)c(C#N)nc2n1C | > 94.7 | > 79.6 | > 60 | > 80.7 | > 100 | 49.2 | > 58.9 | 51.4 | 42.1 | 36.2 | > 63.4 | > 91.7 | 51.3 | 55.8 | 40.5 | 36.4 | > 100 | 33.9 |
| O=C(Cc1nc2ccccc2[nH]c1=O)c1c[nH]c2ccccc12 | > 100 | > 100 | > 100 | 54.2 | > 100 | 47.6 | > 100 | > 100 | 68.2 | > 100 | 34.1 | 47.6 | 33.7 | 41.6 | 46.1 | > 100 | 31.3 | > 100 |
| COC(=O)[C@@](NC(=O)OCc1ccccc1)([C@H](C)O)C(F)(F)F | > 100 | > 100 | > 100 | > 100 | > 100 | > 100 | > 100 | > 100 | > 100 | > 100 | > 100 | > 100 | > 100 | > 100 | > 100 | > 100 | > 100 | > 100 |
